The values below come from patent EP0671413A1, “Somatostatin analogs for preventing NSAID-induced ulcers” (SANDOZ LTD, priority 1994, dated 1995).

A short description of the data set: Tolerability after i.p. injection. It is filed as in vivo. The following applies: i.p. injection at 100 mg/kg animal body. The source says: Compounds of formula I are well tolerated at dosages required for use in accordance with the present invention.

In the case of `C[C@@H](O)[C@@H]1NC(=O)[C@H](CCCCN)NC(=O)[C@@H](Cc2c[nH]c3ccccc23)NC(=O)[C@H](Cc2ccccc2)NC(=O)[C@@H](NC(=O)[C@H](N)Cc2ccccc2)CSSC[C@@H](C(=O)N[C@H](CO)[C@@H](C)O)NC1=O` [octreotide], the “increase in GOT” value is recorded as “no increase in GOT” and the lethality result was “no increase in GOT or any lethality”.
